Measurements reported in patent publication US9586931B2 (Merck Sharp & Dohme Corp., priority 2012, dated 2017).
“And” between values parts separate entries of the source, which are not always exact repeats. Equal values may be shown once.

biological target: T1, recombinant human GST-Syk (Homo sapiens, UniProt P43405); assay: Homogeneous Time-Resolved Fluorescence (HTRF) assay for the recombinant human Syk enzyme; assay type: biochemical; conditions: recombinant human GST-Syk 5 pM, ATP 25 μM, 10-dose titration 10 μM to 0.508 nM; read-out: rhSYK Activity IC50
T1 construct: purchased Carna Biosciences 08-176
Summary of the method: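 Detection used time-resolved fluorescence 30 min after adding a quench mix (40 mM EDTA, 15 mM Tris pH 7.5, 0.01% Tween 20) containing 2 nM Europium anti-pTyr antibody and 70 nM streptavidin-APC. This followed 45 min of room-temperature peptide phosphorylation by recombinant GST-tagged human Syk.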

IC50	Structure (SMILES)
38.2 nM	Cc1cc(Nc2ncc(F)c(C(F)F)n2)cc(-c2cn(C3CCCCC3(C)O)nn2)c1 (single isomer, unassigned) [Example 7.25, 2-[4-(3-{[4-(difluoromethyl)-5-fluoropyrimidin-2-yl]amino}-5-methylphenyl)-1H-1,2,3-triazol-1-yl]-1-methylcyclohexanol]
2.9 nM	CCC(CO)n1cc(-c2cc(C)cc(Nc3cc(C(F)(F)F)ccn3)n2)nn1 (stereo not drawn) [Example 13.9, 2-[4-(4-methyl-6-{[4-(trifluoromethyl)pyridin-2-yl]amino}pyridin-2-yl)-1H-1,2,3-triazol-1-yl]butan-1-ol]
21.1 nM	Cc1cc(Nc2nccc(OC(C)C)n2)cc(-c2cn(CC(C)(O)C(C)(C)O)nn2)c1 (stereo not drawn) [Example 21.31, 2,3-dimethyl-1-[4-(3-methyl-5-{[4-(1-methylethoxy)pyrimidin-2-yl]amino}phenyl)-1H-1,2,3-triazol-1-yl]butane-2,3-diol]
31.9 nM	Cc1cc(Nc2cc(C)c(Cl)cn2)nc(-c2cn(CC(C)(O)C(C)(C)O)nn2)c1 (stereo not drawn) [Example 21.24, 1-(4-{6-[(5-chloro-4-methylpyridin-2-yl)amino]-4-methylpyridin-2-yl}-1H-1,2,3-triazol-1-yl)-2,3-dimethylbutane-2,3-diol]
13.1 nM	Cc1cc(Nc2ncc(F)c(C(F)F)n2)cc(-c2cn(C3CCCCC3(C)O)nn2)c1 (single isomer, unassigned) [Example 7.26, 2-[4-(3-{[4-(difluoromethyl)-5-fluoropyrimidin-2-yl]amino}-5-methylphenyl)-1H-1,2,3-triazol-1-yl]-1-methylcyclohexanol]
10.3 nM	Cc1cc(Nc2nccc(C(F)(F)F)n2)cc(-c2cn(CC(C)(O)CO)nn2)c1 (single isomer, unassigned) [Example 21.4, 2-methyl-3-[4-(3-methyl-5-{[4-(trifluoromethyl)pyrimidin-2-yl]amino}phenyl)-1H-1,2,3-triazol-1-yl]propane-1,2-diol]
6.5 nM	Cc1cc(Nc2cc(C(F)F)ccn2)nc(-c2cn(C(C)C(C)(O)CO)nn2)c1 (single isomer, unassigned) [Example 30.6, 3-[4-(6-{[4-(difluoromethyl)pyridin-2-yl]amino}-4-methylpyridin-2-yl)-1H-1,2,3-triazol-1-yl]-2-methylbutane-1,2-diol]
1.8 nM	Cc1cc(Nc2nccc(C(F)F)n2)cc(-c2cn(CC3CNC(=O)O3)nn2)c1 (single isomer, unassigned) [Example 7.4, 5-((4-(3-((4-(difluoromethyl)pyrimidin-2-yl)amino)-5-methylphenyl)-1H-1,2,3-triazol-1-yl)methyl)oxazolidin-2-one]
10.7 nM	Cc1cc(Nc2nccc(C(F)F)n2)cc(-c2cn(CC3OC(=O)NC3C)nn2)c1 (single isomer, unassigned) [Example 7.42, 5-{[4-(3-{[4-(difluoromethyl)pyrimidin-2-yl]amino}-5-methylphenyl)-1H-1,2,3-triazol-1-yl]methyl}-4-methyl-1,3-oxazolidin-2-one]
4.7 nM	Cc1cc(Nc2cc(C(F)(F)F)ccn2)nc(-c2cn(C3CCCCC(O)C3O)nn2)c1 (single isomer, unassigned) [Example 10.6, 3-[4-(4-methyl-6-{[4-(trifluoromethyl)pyridin-2-yl]amino}pyridin-2-yl)-1H-1,2,3-triazol-1-yl]cycloheptane-1,2-diol]
8.1 nM	Cc1cc(Nc2cc(C(F)F)ccn2)nc(-c2cn(CC(C)(O)C(C)(C)O)nn2)c1 (stereo not drawn) [Example 21.36, 1-[4-(6-{[4-(difluoromethyl)pyridin-2-yl]amino}-4-methylpyridin-2-yl)-1H-1,2,3-triazol-1-yl]-2,3-dimethylbutane-2,3-diol]
3.8 nM	Cc1cc(Nc2cc(C(F)F)ccn2)nc(-c2cn(CC3OC(=O)NC3C)nn2)c1 (single isomer, unassigned) [Example 7.43, 5-{[4-(6-{[4-(difluoromethyl)pyridin-2-yl]amino}-4-methylpyridin-2-yl)-1H-1,2,3-triazol-1-yl]methyl}-4-methyl-1,3-oxazolidin-2-one]

The remaining lines, values behind:

Structure (SMILES)	IC50
Cc1cc(Nc2cc(C(F)(F)F)ccn2)nc(-c2cn(C/C=C/C(=O)O)nn2)c1 [Example 5.45, (2E)-4-[4-(4-methyl-6-{[4-(trifluoromethyl)pyridin-2-yl]amino}pyridin-2-yl)-1H-1,2,3-triazol-1-yl]but-2-enoic acid]	8.3 nM
Cc1cc(Nc2nccc(C(F)(F)F)n2)cc(-c2cn(Cc3noc(C)n3)nn2)c1 [Example 5.69, N-(3-methyl-5-{1-[(5-methyl-1,2,4-oxadiazol-3-yl)methyl]-1H-1,2,3-triazol-4-yl}phenyl)-4-(trifluoromethyl)pyrimidin-2-amine]	57.2 nM
Cc1cc(Nc2cc(C(F)(F)F)ccn2)nc(-c2cn(C(C)C(=O)N3CCC(c4ccncc4)C3)nn2)c1 (stereo not drawn) [Example 1.53, 4-methyl-6-{1-[1-methyl-2-oxo-2-(3-pyridin-4-ylpyrrolidin-1-yl)ethyl]-1H-1,2,3-triazol-4-yl}-N-[4-(trifluoromethyl)pyridin-2-yl]pyridin-2-amine]	34.7 nM
Cc1cc(Nc2nccc(C(F)(F)F)n2)cc(-c2cn(C[C@@H](C)CO)nn2)c1 [Example 5.73, (2R)-2-methyl-3-[4-(3-methyl-5-{[4-(trifluoromethyl)pyrimidin-2-yl]amino}phenyl)-1H-1,2,3-triazol-1-yl]propan-1-ol]	39.2 nM
Cc1cc(Nc2cc(C(F)(F)F)ccn2)nc(-c2cn(CS(N)(=O)=O)nn2)c1 [Example 5.107, 1-[4-(4-methyl-6-{[4-(trifluoromethyl)pyridin-2-yl]amino}pyridin-2-yl)-1H-1,2,3-triazol-1-yl]methanesulfonamide]	5.1 nM
COCc1cc(Nc2nccc(C(F)(F)F)n2)cc(-c2cn(C[C@H](O)CO)nn2)c1 [Example 5.23, (2S)-3-{4-[3-(methoxymethyl)-5-{[4-(trifluoromethyl)pyrimidin-2-yl]amino}phenyl]-1H-1,2,3-triazol-1-yl}propane-1,2-diol]	64.7 nM
Cc1cc(Nc2cc(C(F)(F)F)ccn2)nc(-c2cn([C@@H](C)C(=O)NCC(=O)O)nn2)c1 [Example 3.15, N-{(2S)-2-[4-(4-methyl-6-{[4-(trifluoromethyl)pyridin-2-yl]amino}pyridin-2-yl)-1H-1,2,3-triazol-1-yl]propanoyl}glycine]	8.9 nM
Cc1cc(Nc2cc(C(F)(F)F)ccn2)nc(-c2cn(C[C@@H](C)CO)nn2)c1 [Example 5.81, (2R)-2-methyl-3-[4-(4-methyl-6-{[4-(trifluoromethyl)pyridin-2-yl]amino}pyridin-2-yl)-1H-1,2,3-triazol-1-yl]propan-1-ol]	6.9 nM
Cc1cc(Nc2nccc(C(F)(F)F)n2)cc(-c2cn(CC(O)CO)nn2)c1 (racemic) [Example 5.76, 3-[4-(3-methyl-5-{[4-(trifluoromethyl)pyrimidin-2-yl]amino}phenyl)-1H-1,2,3-triazol-1-yl]propane-1,2-diol]	32.4 nM
Cc1cc(Nc2cc(C(F)(F)F)ccn2)nc(-c2cn(C(C)C(=O)NC3CCS(=O)(=O)C3)nn2)c1 (racemic) [Example 1.2, N-(1,1-Dioxidotetrahydrothiophen-3-yl)-2-[4-(4-methyl-6-{[4-(trifluoromethyl)pyridin-2-yl]amino}pyridin-2-yl)-1H-1,2,3-triazol-1-yl]propanamide (racemic)]	42.8 nM
Cc1cc(Nc2cc(C(F)(F)F)ccn2)nc(-c2cn(C[C@H](O)C(N)=O)nn2)c1 [Example 1.13, (2S)-2-hydroxy-3-[4-(4-methyl-6-{[4-(trifluoromethyl)pyridin-2-yl]amino}pyridin-2-yl)-1H-1,2,3-triazol-1-yl]propanamide]	3.4 nM
Cc1cc(Nc2cc(C(F)(F)F)ccn2)nc(-c2cn(C[C@@H](O)C(=O)O)nn2)c1 [Example 4.20, (2R)-2-hydroxy-3-[4-(4-methyl-6-{[4-(trifluoromethyl)pyridin-2-yl]amino}pyridin-2-yl)-1H-1,2,3-triazol-1-yl]propanoic acid]	17 nM
CC(C)=CCn1cc(-c2cc(C)cc(Nc3cc(C(F)(F)F)ccn3)n2)nn1 [Example 5.37, 4-methyl-6-[1-(3-methylbut-2-en-1-yl)-1H-1,2,3-triazol-4-yl]-N-[4-(trifluoromethyl)pyridin-2-yl]pyridin-2-amine]	30.2 nM
Cc1cc(Nc2cc(C(F)(F)F)ccn2)nc(-c2cn(C(C)C(N)=O)nn2)c1 (stereo not drawn) [Example 1.25, 2-[4-(4-methyl-6-{[4-(trifluoromethyl)pyridin-2-yl]amino}pyridin-2-yl)-1H-1,2,3-triazol-1-yl]propanamide]	8.8 nM
Cc1cc(Nc2cc(C(F)(F)F)ccn2)nc(-c2cn(C3CCC(C(N)=O)C(C)(C)C3)nn2)c1 (single isomer, unassigned) [Example 1.8, 2,2-dimethyl-4-[4-(4-methyl-6-{[4-(trifluoromethyl)pyridin-2-yl]amino}pyridin-2-yl)-1H-1,2,3-triazol-1-yl]cyclohexanecarboxamide]	5.8 nM
Cc1cc(Nc2cc(C(F)(F)F)ccn2)nc(-c2cn(C(C)C(=O)N3CCc4c([nH]c5ccccc45)C3)nn2)c1 (stereo not drawn) [Example 1.31, 4-methyl-6-{1-[1-methyl-2-oxo-2-(1,3,4,9-tetrahydro-2H-beta-carbolin-2-yl)ethyl]-1H-1,2,3-triazol-4-yl}-N-[4-(trifluoromethyl)pyridin-2-yl]pyridin-2-amine]	320 nM
Cc1cc(Nc2cc(C(F)(F)F)ccn2)nc(-c2cn(C[C@H](O)CC#N)nn2)c1 [Example 5.44, (3R)-3-hydroxy-4-[4-(4-methyl-6-{[4-(trifluoromethyl)pyridin-2-yl]amino}pyridin-2-yl)-1H-1,2,3-thiazol-1-yl]butanenitrile]	4.1 nM and 3.18 nM
Cc1cc(Nc2cc(C(F)(F)F)ccn2)nc(-c2cn(C[C@H](C)CO)nn2)c1 [Example 5.82, (2S)-2-methyl-3-[4-(4-methyl-6-{[4-(trifluoromethyl)pyridin-2-yl]amino}pyridin-2-yl)-1H-1,2,3-triazol-1-yl]propan-1-ol]	7.9 nM
